Data as given in patent US11091462B2, “(Hetero)arylamide compound for inhibiting protein kinase activity” (Shenzhen TargetRx, Inc., priority 2017, dated 2021).
Values joined by “and” are separate entries in the source; they are usually repeats but may differ in a detail not shown here. Equal values may be shown once. Read-outs that look alike come from different tables or passages of the source.

Experiments:
[1] = tested on: Ba/F3 parent cells; assay: Cytotoxicity experiment, Ba/F3 parent cells (CellTiter-Glo); assay type: cell-based; settings: Mus musculus, BaF3, 72 h; Ba/F3 parent cells with 8 ng/ml IL-3, 3 days
Description: (§1) Example 13: Cytotoxicity Experiment
(§2) The inhibitory effect of the Example compounds on the activity of Ba/F3 parent cell, Ba/F3 Bcr-Abl^T315I cell was examined.
(§3) 1. Preparation of cell plate: Ba/F3 parental cells, Ba/F3 Bcr-Abl^T315I cells were seeded in 96-well plates, and 8 ng/ml IL-3 was added to Ba/F3 parental cells. The cell plates were placed in carbon dioxide culture and incubated overnight.
(§4) 2. Preparation of test compounds: The test compounds were dissolved in DMSO and subjected to a 3.16-fold gradient dilution in triplicate, 9 concentrations were obtained, starting from the concentration of 10 μM.
(§5) 3. Treatment of Cells with compounds: Compounds at various concentrations were transferred to cell plates. The cell plates were incubated in a carbon dioxide incubator for 3 days.
(§6) 4. Detection: CellTiter-Glo4 reagent was added to the cell plates, which were incubated for 30 minutes at room temperature to stabilize the luminescence signal. Readings were performed using a PerkinElmer Envision multi-label analyzer.

[2] = biological target: T1, Ba/F3 Bcr-Abl^T315I cells (Homo sapiens, UniProt P00519, T315I, cells depend on it); assay: Cytotoxicity experiment, Ba/F3 Bcr-Abl T315I cells (CellTiter-Glo); assay type: cell-based; settings: 3 days, read-out: Ba/F3 Bcr-Abl1^T315I IC50
T1 construct: Ba/F3 Bcr-Abl1^T315I IC50; other: Ba/F3 Bcr-Abl T315I cells, 3 days; fused on or other part: P11274 (Breakpoint cluster region protein)
Description: as §1, §2, §3, §4, §5, §6

[3] = Pharmacokinetic experiment in rats; assay type: in vivo, Sprague-Dawley rats; set-up: Cl—pred: unit not given here; settings: for AUC(0-t) / Cmax / MRT inf / Vd: male, Sprague-Dawley, rat, plasma; for MRT inf: read-out: MRTINF—pred; for Vd: read-out: Vz—pred; for F: oral 20 mg/kg vs IV 2 mg/kg
Description: 9 Male Sprague-Dawley rats, 7-8 weeks old, weighted 210 g, divided into 3 groups with 3 rats in each group, were intravenously (2 mg/kg) or orally (20 mg/kg) given a single dose of compound, and differences in pharmacokinetics of the rats were compared.
Rats were fed with a standard diet and water. Fasting began 16 hours before the test. The drugs were dissolved in PEG400 and dimethyl sulfoxide. Blood was collected from the eyelids at a time point of 0.083 hour, 0.25 hour, 0.5 hour, 1 hour, 2 hours, 4 hours, 6 hours, 8 hours, 12 hours, and 24 hours after administration.
Rats were briefly anesthetized after inhalation of ether, and 300 μL of blood samples were collected from the eyelids to test tubes. There was 30 μL of 1% heparin salt solution in the test tube. The tubes were dried overnight at 60° C. before use. After the blood sample was collected at the last time point, rats were anesthetized with ether and sacrificed.
Immediately after the collection, blood samples were sufficiently mixed by gently inverting the tube at least 5 times, and were placed on ice. Blood samples were centrifuged at 5000 rpm for 5 minutes at 4° C. to separate plasma from red blood cells. 100 μL of the plasma was pipetted into a clean plastic centrifuge tube, marking the name of the compound and collecting time. Plasma was stored at −80° C. prior to analysis. The concentration of the compounds disclosed herein in plasma was determined by LC-MS/MS. Pharmacokinetic parameters were calculated based on drug concentrations in plasma of each animal at different time points.

[4] = tested on: BA/F3 (BCR-ABL^T315I) cells; assay: Pharmacodynamic evaluation in BA/F3 (BCR-ABL T315I) subcutaneous tumor model; assay type: in vivo, NOD/SCID mice; settings: 15 mg/kg twice a day
Description: Feeding environment: SPF level.
Each NOD/SCID mouse was subcutaneously inoculated with 5×10^6 BA/F3 (BCR-ABL^T315I) cells in the right dorsal area, wherein the cells were resuspended in PBS (0.1 ml/mouse), to establish a subcutaneous tumor model. […] The efficacy was evaluated according to the relative tumor growth inhibition rate (TGI), and the safety evaluation was performed according to the body weight changes and deaths of the animals.
The experimental protocols for animal experiment disclosed herein were reviewed and approved by the CrownBio IACUC committee. During the experiment, the procedures of the animal experiment were carried out according to the requirements of AAALAC. After tumor inoculation, the effects of tumor growth and treatment on normal animal behavior were routinely monitored, including experimental animal activity, feeding and drinking, weight gain or loss, eye, hair and other abnormalities. Abnormal clinical symptoms observed during the experiment were recorded in the raw data. Mice body weight and tumor size were measured and recorded three times per week during the experiment. The mice were weighed before each administration and administered according to the weight thereof.
Relative tumor growth inhibition rate TGI (%):
T/C % is the relative tumor proliferation rate, that is, the percentage of tumor volume or tumor weight of the treatment group and the control group at a certain time point. T and C are the relative tumor volume (RTV) or tumor weight (TW) of the treatment group and the control group at a specific time point, respectively.
All experimental results were expressed as mean±standard error (x±s), and the significant difference of the tumor volume at 12 days after grouping between the control group and each treatment group was evaluated with one-way ANOVA, and significant difference of the tumor volume between the control group and each treatment group or between each treatment group was evaluated using Games-Howell (heterogeneity of variance), p<0.05 was considered to be significant.

[5] = assay type: in vivo; settings: 15 mg/kg twice a day

Row | Compound | IC50 [1] | GI50 [2] | Vz—pred ([3]; PO 20 mg/kg single dose) | AUC(0-t) ([3]; IV 2 mg/kg single dose) | Vd ([3]; IV 2 mg/kg single dose) | AUC(0-t) ([3]; PO 20 mg/kg single dose) | Cmax ([3]; PO 20 mg/kg single dose) | F [3] | also measured
1 | O=C(Nc1ccc(OC(F)(F)Cl)cc1)c1cnc(N2CC[C@@H](O)C2)c(-c2nccnn2)c1 [Example 6, (R)-6-(3-hydroxypyrrolidin-1-yl)-5-(1,2,4-triazin-3-yl)-N-(4-(chlorodifluoromethoxy)phenyl)nicotinamide] | > 1000 nM | > 1000 nM | – | – | – | – | – | – | –
2 | O=C(Nc1ccc(OC(F)(F)Cl)cc1)c1cnc(N2CC[C@@H](O)C2)c(-c2cncnn2)c1 [Example 5, (R)-6-(3-hydroxypyrrolidin-1-yl)-5-(1,2,4-triazin-6-yl)-N-(4-(chlorodifluoromethoxy)phenyl)nicotinamide] | > 1000 nM | 100 to 500 nM | – | – | – | – | – | – | –
3 | O=C(Nc1ccc(OC(F)(F)Cl)cc1)c1cnc(N2CC[C@@H](O)C2)c(-c2cccnn2)c1 [Example 2, (R)-6-(3-hydroxypyrrolidin-1-yl)-5-(pyridazine-3-yl)-N-(4-(chlorodifluoromethoxy)phenyl)nicotinamide] | > 1000 nM | 100 to 500 nM | – | – | – | – | – | – | –
4 | O=C(Nc1ccc(OC(F)(F)Cl)cc1)c1cnc(N2CC[C@@H](O)C2)c(-c2cnccn2)c1 [Example 1, (R)-6-(3-hydroxypyrrolidin-1-yl)-5-(pyrazin-2-yl)-N-(4-(chlorodifluoromethoxy)phenyl)nicotinamide] | > 1000 nM | ≤ 100 nM | 1.68 L/kg | 5700 ng·h/mL | 0.7 L/kg | 38000 ng·h/mL | 4330 ng/mL | 66.68% | Cl—pred ([3]; IV 2 mg/kg single dose): 0.35; Cl—pred ([3]; PO 20 mg/kg single dose): 0.54; Cmax ([3]; IV 2 mg/kg single dose): 4820 ng/mL; MRT inf ([3]; IV 2 mg/kg single dose): 1.37 h; MRT inf ([3]; PO 20 mg/kg single dose): 5.43 h
5 | O=C(Nc1ccc(OC(F)(F)Cl)cc1)c1cnc(N2CC[C@@H](O)C2)c(-c2ccnnc2)c1 [Example 3, (R)-6-(3-hydroxypyrrolidin-1-yl)-5-(pyridazine-4-yl)-N-(4-(chlorodifluoromethoxy)phenyl)nicotinamide] | > 1000 nM | 500 to 1000 nM | – | – | – | – | – | – | –
6 | O=C(Nc1ccc(OC(F)(F)Cl)cc1)c1cnc(N2CC[C@@H](O)C2)c(-c2ccn[nH]2)c1 [ABL-001, (R)—N-(4-(chlorodifluoromethoxy)phenyl)-6-(3-hydroxypyrrolidin-1-yl)-5-(1H-pyrazol-5-yl)nicotinamide, reference compound] | – | – | 5.14 L/kg | 6900 ng·h/mL | 0.54 L/kg | 13700 ng·h/mL | 1770 ng/mL | 19.86% | –
7 | Nc1ncc(-c2cc(C(=O)Nc3ccc(OC(F)(F)Cl)cc3)cnc2N2CC[C@@H](O)C2)nn1 [Example 4, (R)-6-(3-hydroxypyrrolidin-1-yl)-5-(3-amino-1,2,4-triazin-6-yl)-N-(4-(chlorodifluoromethoxy)phenyl)nicotinamide] | > 1000 nM | 100 to 500 nM | – | – | – | – | – | – | –
8 | O=C(Nc1ccc(OC(F)(F)Cl)cc1)c1cnc(N2CC[C@@H](F)C2)c(-c2cnccn2)c1 [Example 7, (R)-6-(3-fluoropyrrolidin-1-yl)-5-(pyrazin-2-yl)-N-(4-(chlorodifluoromethoxy)phenyl)nicotinamide] | > 1000 nM | ≤ 100 nM | 2.52 L/kg | 3740 ng·h/mL | 0.79 L/kg | 23100 ng·h/mL | 2370 ng/mL | 61.95% | Cl—pred ([3]; IV 2 mg/kg single dose): 0.54; Cl—pred ([3]; PO 20 mg/kg single dose): 0.90; Cmax ([3]; IV 2 mg/kg single dose): 4510 ng/mL; MRT inf ([3]; IV 2 mg/kg single dose): 1.14 h; MRT inf ([3]; PO 20 mg/kg single dose): 5.43 h; Tumor volume (x ± S) ([4]; at day 2 after grouping): 175 ± 17 mm^3; Tumor volume (x ± S) ([4]; at day 5 after grouping): 237 ± 27 mm^3; Tumor volume (x ± S) ([4]; at day 8 after grouping): 432 ± 24 mm^3; Tumor volume (x ± S) ([4]; at day 10 after grouping): 590 ± 51 mm^3; Tumor volume (x ± S) ([4]; at day 12 after grouping): 790 ± 64 mm^3; Tumor volume (x ± S) ([4]; at day 15 after grouping): 1145 mm^3 and 1145 ± 116 mm^3; relative tumor growth inhibition rate TGI ([4]; at day 15 after grouping): 53.1%; Tumor volume (x ± S) ([4]; at day 17 after grouping): 1532 ± 129 mm^3; Tumor volume (x ± S) ([4]; at day 19 after grouping): 1761 ± 212 mm^3; Tumor volume (x ± S) ([4]; at day 22 after grouping): 2216 ± 126 mm^3; Tumor volume (x ± S) ([4]; at the day of grouping): 160 ± 11 mm^3; average body weight of the mice increased by ([5]; at day 22 after grouping): 1.3%; decrease in the body weight of mice during the experiment ([5]; during the experiment): no mouse in the Example 7 15 mg/kg group had a decrease in the body weight
